The values that follow come from PMC9924227, “IFITM proteins assist cellular uptake of diverse linked chemotypes” (Science (New York, N.Y.), 2022).

Where two headings read alike, the source gives them in different places.

Common to all, as to test: cells
Assay [1] concerns T1, K562.
T1 construct: engineered with CRISPRi or CRISPRa machinery, no sgRNA
Further details: dose-response cell viability assay in K562 CRISPRi/CRISPRa CML cells, IC50. Conditions: Homo sapiens, read-out: Cell viability IC50 (nM) / No sgRNA. From the text:
To further examine the breadth of linked chemotypes that might be assisted by IFITMs, we designed, synthesized, and characterized a new linked molecular glue inhibitor based on the natural product rocaglamide. Rocaglamide clamps the EIF4A1 helicase to 5’ untranslated regions (UTRs) of target mRNAs to inhibit the translation of downstream sequences ([64]). […] We reasoned that dimerization of rocaglamide through its amide position could be a chemically tractable means to simultaneously engage two proximal EIF4A1-RNA complexes within the cell. We designed a molecule, BisRoc-1 (fig. S9B), that links two rocaglamide monomers together with a linker length (35 heavy atoms) exceeding the distance separating two rocaglamide binding sites in the crystal structure (fig. S9A). […] Additionally, we evaluated the relationship between linker length and IFITM assistance by examining an analog series consisting of BisRoc-1 (PEG11), BisRoc-2 (PEG4), BisRoc-3 (PEG2), and rocaglamide (no linker) (fig. S9E). We treated our K562 CRISPRi and CRISPRa cells with these inhibitors and evaluated differences in potency resulting from IFITM expression modulation, as measured by half-maximal inhibitory concentration (IC50) shift in a cell viability assay (fig. S9, E and F, and data file S7). […] Given the ubiquitous presence of IFITMs in cells, we hypothesized that the cellular uptake of other linked inhibitors in the literature could also be assisted by IFITMs. While not generally as large as the linked chemotypes described above, PROTACs are likewise composed of two chemical entities covalently attached by a flexible tether ([16]). Thus, we included four PROTACs (GMB-475, MZ1, BETd-260, and dBET6) and their non-linked parent inhibitors in an expanded survey of chemical-genetic interactions with IFITMs (Fig. 4A, fig. S10, and table S1). These compounds were evaluated in the same IFITM dependency analysis as the BisRoc linker series (Fig. 4B and data file S7). Using RapaLink-1 as a chemical benchmark, we observed that IFITM1, IFITM2, and IFITM3 overexpression sensitized cells to linked chemotypes (Fig. 4B; compounds 9-17). The inverse finding, resistance to linked chemotypes, resulted from gene knockdown (Fig. 4B). The trend observed in the BisRoc series was corroborated across the 9 bivalent molecules tested (Fig. 4B): the magnitudes of chemical-genetic interactions correlated with linker length which is reflected in inhibitor size (molecular weight) and flexibility (number of rotatable bonds). Linked chemotypes with long linkers were more IFITM-assisted than linked chemotypes with short linkers, and non-linked chemotypes (Fig. 4B; compounds 1-8) were not observed to be assisted by IFITMs (Fig. 4B). Despite their cellular activities, the physicochemical properties of the linked chemotypes largely violate Lipinski’s ([1]) and Veber’s ([2]) classic guidelines (Fig. 4, A to C, and table S1), raising the need for a revised drug design framework that considers IFITM-assisted uptake and other cellular import processes.  Fig. 4. IFITMs assist the cellular activity of diverse linked chemotypes. (A) Heavy atom skeletons of compounds assessed for IFITM assistance (see also fig. S10 for chemical structures). Compounds were categorized as non-linked chemotypes (compounds 1–8, black), linked chemotypes with short linkers (compounds 9–14, gray), or linked chemotypes with long linkers (compounds 15–17, green). (B) Chemical-genetic interaction map of inhibitors in (A) with IFITM1, IFTM2, and IFITM3. Potency, as measured by dose-response IC50 in a cell viability assay (see also Fig. 1F, Fig. 3D, or fig. S9D for example source data), was normalized to that of non-sgRNA-expressing K562 CRISPRi or CRISPRa cells. Physicochemical properties, including molecular weight (MW) and number of rotatable bonds, with their respective traditional thresholds for drug-likeness are indicated (right). Data represent means of three biological replicates. […]

In assay [2] the test system is K562 CRISPRa. Further details: Cell viability dose-response in K562 CRISPRi/CRISPRa cells; IC50 from fitted curve. The conditions noted are these: Homo sapiens; sheet K562 CRISPRa IC50;; non-targeting control sgRNA; read-out: Cell viability IC50 (nM) / NegCtrl sg. The source says: (§1) To further examine the breadth of linked chemotypes that might be assisted by IFITMs, we designed, synthesized, and characterized a new linked molecular glue inhibitor based on the natural product rocaglamide. Rocaglamide clamps the EIF4A1 helicase to 5’ untranslated regions (UTRs) of target mRNAs to inhibit the translation of downstream sequences ([64]). […] We reasoned that dimerization of rocaglamide through its amide position could be a chemically tractable means to simultaneously engage two proximal EIF4A1-RNA complexes within the cell. We designed a molecule, BisRoc-1 (fig. S9B), that links two rocaglamide monomers together with a linker length (35 heavy atoms) exceeding the distance separating two rocaglamide binding sites in the crystal structure (fig. S9A). […] Additionally, we evaluated the relationship between linker length and IFITM assistance by examining an analog series consisting of BisRoc-1 (PEG11), BisRoc-2 (PEG4), BisRoc-3 (PEG2), and rocaglamide (no linker) (fig. S9E). We treated our K562 CRISPRi and CRISPRa cells with these inhibitors and evaluated differences in potency resulting from IFITM expression modulation, as measured by half-maximal inhibitory concentration (IC50) shift in a cell viability assay (fig. S9, E and F, and data file S7). […] IFITMs assist the cellular activity of diverse linked chemotypes. (A) Heavy atom skeletons of compounds assessed for IFITM assistance (see also fig. S10 for chemical structures). Compounds were categorized as non-linked chemotypes (compounds 1–8, black), linked chemotypes with short linkers (compounds 9–14, gray), or linked chemotypes with long linkers (compounds 15–17, green). (B) Chemical-genetic interaction map of inhibitors in (A) with IFITM1, IFTM2, and IFITM3. Potency, as measured by dose-response IC50 in a cell viability assay (see also Fig. 1F, Fig. 3D, or fig. S9D for example source data), was normalized to that of non-sgRNA-expressing K562 CRISPRi or CRISPRa cells. Physicochemical properties, including molecular weight (MW) and number of rotatable bonds, with their respective traditional thresholds for drug-likeness are indicated (right). Data represent means of three biological replicates. (C) Map of chemical space populated by 304 kinase inhibitors in clinical development (black), 3270 PROTACs reported in the literature (gray), and 3 linked chemotypes described herein (green). Boundaries represent traditional guidelines for drug-likeness.

Assay [3] relates to K562 CRISPRi. Details: Cell viability dose-response in K562 CRISPRi/CRISPRa cells; IC50 from fitted curve. The conditions noted are these: Homo sapiens, non-targeting control sgRNA, read-out: Cell viability IC50 (nM) / NegCtrl sg.
Source text: as §1

The mark [4] stands for this setting: sheet K562 CRISPRa IC50, no sgRNA.

For the molecule `CO[C@@H]1C[C@@H]2CC[C@@H](C)[C@@](O)(O2)C(=O)C(=O)N2CCCC[C@@H]2C(=O)O[C@H]([C@H](C)C[C@H]2CC[C@H](OCCOCc3cn(CCOCCOCCOCCOCCOCCOCCOCCOCCC(=O)NCCCCn4nc(-c5ccc6oc(N)nc6c5)c5c(N)ncnc54)nn3)[C@H](OC)C2)CC(=O)[C@H](C)/C=C(/C)[C@H](O)[C@@H](OC)C(=O)[C@H](C)C[C@H](C)\C=C/C=C\C=C/1C` (stereo in doubt) [RapaLink-1], the IC50 in assay [1] (setting [4]) stood at 2.23 nM; in assay [1] (Cells=K562 CRISPRi, no sgRNA) it was 1.19 nM; in assay [2] it was 2.07 nM; in assay [3], 1.25 nM.
With `CCn1nc(C2CC2)cc1Nc1nc(C(=O)NCCCCCc2cccc3c2CN(C2CCC(=O)NC2=O)C3=O)nc2[nH]c3cc(-c4c(C)noc4C)c(OC)cc3c12` (centres unmarked) [BETd-260], the IC50 in assay [1] (setting [4]) came out at 1.15 nM; in assay [1] (Cells=K562 CRISPRi, no sgRNA), 3.79 nM; in assay [2], 1.04 nM; in assay [3], 3.88 nM.
Regarding `Cc1ncsc1-c1ccc(CNC(=O)[C@@H]2C[C@@H](O)CN2C(=O)[C@@H](NC(=O)COCCOc2ccc(-c3cc(Nc4ccc(OC(F)(F)F)cc4)ncn3)cc2)C(C)(C)C)cc1` [GMB-475], the IC50 in assay [1] (setting [4]) came out at 212 nM; in assay [1] (Cells=K562 CRISPRi, no sgRNA) it was 264 nM; in assay [2] it was 179 nM; in assay [3], 249 nM.
On to `NC(=O)c1cccc(-c2cc(Nc3ccc(OC(F)(F)F)cc3)ncn2)c1` [GNF-2], for which the IC50 in assay [1] (setting [4]) amounted to 202 nM; in assay [1] (Cells=K562 CRISPRi, no sgRNA), 291 nM; in assay [2], 205 nM; in assay [3], 284 nM.
The like results for `CCn1nc(C2CC2)cc1Nc1nc(C(=O)NC)nc2[nH]c3cc(-c4c(C)noc4C)c(OC)cc3c12` [HJB97] were, in that order, 11.6 nM, 46.8 nM, 9.74 nM and 41.5 nM.
`Cc1sc2c(c1C)C(c1ccc(Cl)cc1)=N[C@@H](CC(=O)OC(C)(C)C)c1nnc(C)n1-2` [JQ1]: the IC50 in assay [1] (setting [4]) came to 24.4 nM; in assay [1] (Cells=K562 CRISPRi, no sgRNA) it was 118 nM; in assay [2] it was 22.2 nM; in assay [3] it was 121 nM.
On to `Cc1ncsc1-c1ccc(CNC(=O)[C@@H]2C[C@@H](O)CN2C(=O)[C@@H](NC(=O)COCCOCCOCCNC(=O)C[C@@H]2N=C(c3ccc(Cl)cc3)c3c(sc(C)c3C)-n3c(C)nnc32)C(C)(C)C)cc1` [MZ1], for which the IC50 came out at 31.4 nM in assay [1] (setting [4]); 135 nM in assay [1] (Cells=K562 CRISPRi, no sgRNA); 33.3 nM in assay [2]; 146 nM in assay [3].
For the molecule `CO[C@H]1C[C@@H]2CC[C@@H](C)[C@@](O)(O2)C(=O)C(=O)N2CCCC[C@H]2C(=O)O[C@H]([C@H](C)C[C@@H]2CC[C@@H](O)[C@H](OC)C2)CC(=O)[C@H](C)/C=C(\C)[C@@H](O)[C@@H](OC)C(=O)[C@H](C)C[C@H](C)/C=C/C=C/C=C/1C` [Rapamycin], the IC50 in assay [1] (setting [4]) is 0.356 nM; in assay [1] (Cells=K562 CRISPRi, no sgRNA) it was 0.743 nM; in assay [2], 0.376 nM; in assay [3], 0.776 nM.
The like results for `COc1ccc([C@@]23Oc4cc(OC)cc(OC)c4[C@]2(O)[C@H](O)[C@H](C(=O)N(C)C)[C@H]3c2ccccc2)cc1` [Rocaglamide] were, in that order, 7.65 nM, 7.23 nM, 6.97 nM and 6.86 nM.
The like results for `CC(C)n1nc(-c2ccc3oc(N)nc3c2)c2c(N)ncnc21` [Sapanisertib] were, in that order, 14.2 nM, 24.6 nM, 15.3 nM and 24.4 nM.
The matching figures for `Cc1sc2c(c1C)C(c1ccc(Cl)cc1)=N[C@@H](CC(=O)NCCCCCCCCNC(=O)COc1cccc3c1C(=O)N(C1CCC(=O)NC1=O)C3=O)c1nnc(C)n1-2` (some centres unmarked) [dBET6]: 3.26 nM, 11.7 nM, 3.04 nM and 12.6 nM.
